As a reminder, the Ki is the equilibrium dissociation constant of an inhibitor or competing ligand from its target. Read a high Ki as lower affinity.

This assay deals with T1, Dihydrofolate reductase (Escherichia coli, UniProt P0ABQ4).
T1 sequence (P0ABQ4 whole entry): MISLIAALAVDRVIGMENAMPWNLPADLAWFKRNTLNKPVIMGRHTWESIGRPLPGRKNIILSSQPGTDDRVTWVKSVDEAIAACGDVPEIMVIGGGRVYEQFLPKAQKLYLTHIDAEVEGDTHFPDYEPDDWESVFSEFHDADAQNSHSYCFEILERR
Description: Negative logarithm of inhibition constant (-log Ki) against Dihydrofolate reductase in Escherichia coli
`COc1cc(CC2CN=C(N)N=C2N)ccc1Cc1ccccc1` (stereo unspecified) showed a Ki of 29.5 nM. With `CS(=O)(=O)Oc1cccc(CC2CN=C(N)N=C2N)c1` (stereo unspecified) the figure was 120 nM; with `NC1=NCC(Cc2ccc(O)cc2)C(N)=N1` (stereo unspecified), 355 nM. With `Cc1cc(CC2CN=C(N)N=C2N)cc(Cl)c1N` (stereo unspecified) the figure was 1.35 nM. For `COCCc1c(OC)cc(CC2CN=C(N)N=C2N)cc1OC` (stereo unspecified) the value was 4.47 nM; for `NC1=NCC(Cc2cc(I)c(O)c(I)c2)C(N)=N1` (stereo unspecified), 1.51 nM. On to `COCCCCCCCOc1c(OC)cc(CC2CN=C(N)N=C2N)cc1OC` (stereo unspecified), for which the Ki was 63.1 nM. On to `CCc1cc(CC2CN=C(N)N=C2N)cc(CC)c1CC` (stereo unspecified), for which the Ki is 15.1 nM. Compound `COc1ccc(CC2CN=C(N)N=C2N)cc1OS(C)(=O)=O` (stereo unspecified) gave a Ki of 15.8 nM. `CS(=O)(=O)Oc1ccc(CC2CN=C(N)N=C2N)cc1` (stereo unspecified) gave a Ki of 251 nM. For `COCCC(=O)c1ccc(CC2CN=C(N)N=C2N)cc1C(=O)CCOC` (stereo unspecified) the value was 60.3 nM; for `CCCCCCCCOc1c(OC)cc(CC2CN=C(N)N=C2N)cc1OC` (stereo unspecified), 13.5 nM. For `Cc1cc(CC2CN=C(N)N=C2N)cc(C)c1O` (stereo unspecified), affinity was put at a Ki of 27.5 nM. This Ki is about 2-fold higher than that of the compound before.

`NC1=NCC(Cc2cc(Br)c(N)c(Br)c2)C(N)=N1` (stereo unspecified) had a Ki of 1.41 nM.

With `NC1=NCC(Cc2ccc([N+](=O)[O-])cc2)C(N)=N1` (stereo unspecified), affinity was put at a Ki of 631 nM. Compound `COc1ccc(CC2CN=C(N)N=C2N)cc1OCc1ccccc1` (stereo unspecified) gave a Ki of 21.9 nM. With `COc1cc(CC2CN=C(N)N=C2N)cc(OC)c1OCc1ccccc1` (stereo unspecified) the figure was 3.8 nM. For `NC1=NCC(Cc2ccc3c(c2)OCCO3)C(N)=N1` (stereo unspecified) the value was 74.1 nM.

The compound `NC1=NCC(Cc2cc(Cl)c(N)c(Cl)c2)C(N)=N1` (stereo unspecified) gave a Ki of 1.35 nM. With `COCCOc1ccc(CC2CN=C(N)N=C2N)cc1OC` (stereo unspecified) the figure was 17 nM; with `CCCOc1cc(CC2CN=C(N)N=C2N)cc(OCCC)c1` (stereo unspecified), 38.9 nM.

Take `NC1=NCC(Cc2ccc(OCc3ccccc3)cc2)C(N)=N1` (stereo unspecified): the affinity, expressed as Ki, was 129 nM. Against the preceding compound, the Ki is about 3.3-fold higher. In the case of `COc1ccc(CC2CN=C(N)N=C2N)cc1C(F)(F)F` (stereo unspecified), the Ki was 20.4 nM.

Turning to `COc1ccc(CC2CN=C(N)N=C2N)cc1O` (stereo unspecified), the Ki was 145 nM. Consider `COc1cc(CC2CN=C(N)N=C2N)cc(OC)c1C` (stereo unspecified), for which the affinity corresponds to a Ki of 2.69 nM. For `CC(=O)Nc1ccc(CC2CN=C(N)N=C2N)cc1[N+](=O)[O-]` (stereo unspecified) the value was 107 nM; for `COc1cc(CC2CN=C(N)N=C2N)ccc1OS(C)(=O)=O` (stereo unspecified), 11.5 nM. For `CCCCCCOc1cccc(CC2CN=C(N)N=C2N)c1` (stereo unspecified) the value was 138 nM; for `COc1c(I)cc(CC2CN=C(N)N=C2N)cc1I` (stereo unspecified), 1.51 nM; for `NC1=NCC(Cc2ccc(OC(F)(F)F)cc2)C(N)=N1` (stereo unspecified), 269 nM. In turn, `COCCCCCCCOc1cc(CC2CN=C(N)N=C2N)ccc1OC` (stereo unspecified) showed an inhibition constant Ki of 69.2 nM.

For the compound `COc1c(C)cc(CC2CN=C(N)N=C2N)cc1C` (stereo unspecified), the Ki was 18.2 nM. `Cc1cc(C)cc(CC2CN=C(N)N=C2N)c1` (stereo unspecified) had a Ki of 91.2 nM. This Ki is about 5-fold higher than that of the compound before. With `COc1cc(CC2CN=C(N)N=C2N)cc(OC)c1Br` (stereo unspecified) the figure was 6.61 nM; with `COc1cc(CC2CN=C(N)N=C2N)ccc1O` (stereo unspecified), 28.8 nM; with `CCCCCCOc1c(OC)cc(CC2CN=C(N)N=C2N)cc1OC` (stereo unspecified), 13.5 nM.

For the origin of these results see ChEMBL document CHEMBL1129627, “Nonlinear quantitative structure-activity relationship for the inhibition of dihydrofolate reductase by pyrimidines” (J Med Chem, 1996).
